Earlier results, collected in US6443892B1, “Sweat collecting device and methods for use and detection of tampering” (The United States of America as represented by the …, priority 2000, dated 2002).

What was measured:
[1] = basic media
[2] = hydrophilic dye; hydration of inner pad not reported

Row | Structure (SMILES) | earliest collection time with detectable concentrations after drugs placed on outside of membrane [1] | CFWO through membrane [2]
1 | CC(=O)Oc1ccc2c3c1O[C@H]1[C@@H](OC(C)=O)C=C[C@H]4[C@@H](C2)N(C)CC[C@@]341 [heroin] | approximately 30 seconds | –
2 | CN[C@@H](C)Cc1ccccc1 [methamphetamine] | approximately 30 seconds | –
3 | CCN(CC)c1ccc2c(-c3ccccc3C(=O)O)c3ccc(=[N+](CC)CC)cc-3oc2c1.[Cl-] [rhodamine B] | – | No CFWO was observed
